From patent US5126436A (priority 1989, dated 1992) come the findings set out here.

≈ marks a conversion by molar mass, not a printed value.

The subject of one series is Alternaria mali IFO 8984. The class given is cell-based. To be noted: IFO8984, 20 μg/disc (diameter 8 mm), read-out: Inhibition Circle. The source says: (§1) The value in paretheses in the table denotes a partial inhibition.
For series [1], the system named is Candida albicans IFO 1594. Format: cell-based. To be noted: IFO1594, 20 μg/disc (diameter 8 mm), read-out: Inhibition Circle.
Excerpt: as §1

The test system of a further series is Chlorella vulgaris. The class given is cell-based. To be noted: 20 μg/disc (diameter 8 mm), read-out: Inhibition Circle.
Excerpt: as §1

The subject of series [2] is Colletotrichum lagenarium IFO 7513. The class given is cell-based. To be noted: Colletotrichum orbiculare, IFO7513; 20 μg/disc (diameter 8 mm); value in parentheses denotes a partial inhibition; read-out: Inhibition Circle.
Excerpt: as §1

The subject of a further series is Escherichia coli AB 1157. The class given is cell-based. To be noted: AB1157, 20 μg/disc (diameter 8 mm), read-out: Inhibition Circle.
Excerpt: as §1

A further series relates to Escherichia coli BE 1186. The class given is cell-based. The conditions noted are these: BE1186, 20 μg/disc (diameter 8 mm), read-out: Inhibition Circle.
Excerpt: as §1

Series [3] has as its system Pseudomonas aeruginosa IFO 13130. The class given is cell-based. To be noted: IFO13130, 20 μg/disc (diameter 8 mm), read-out: Inhibition Circle.
Excerpt: as §1

In series [4] the test system is Pyricularia oryzae IFO 5994. Put plainly: microbe, parasite or virus in culture. Format: cell-based. The conditions noted are these: IFO5994, read-out: Inhibition Circle.
Another series deals with KB. Put plainly: Cell-killing activity. The class given is cell-based. The conditions noted are these: Homo sapiens; KB cells; read-out: ID50 (concentration at which 50% of cancer cells are killed).
The next series relates to HeLa. The series is described as follows: Cell-killing activity. The class given is cell-based. The conditions noted are these: Homo sapiens; HeLa cells; read-out: ID50 (concentration at which 50% of cancer cells are killed).
Another series can be described thus: Solubility. Format: physicochemical.

For `CC=C(C)C(O)C(C)C=C(C)C=CCC(C)=CCc1nc(OC)c(OC)c(OC2OC(C)C(O)C(O)C2O)c1C` (stereo not drawn), the zone of inhibition at 20 µg/disc in the series on Alternaria mali IFO 8984 came out at 0 mm; in [1], 0 mm; with Chlorella vulgaris it was 0 mm; in series [2] it was 13.3 mm; in the series on Escherichia coli AB 1157, 0 mm; in the series on Escherichia coli BE 1186, 0 mm. In addition, the zone of inhibition at 20 µg/disc turned out to be 0 mm in series [3] and 19.1 mm in series [4]. Also, the IC50 in the series with KB was found to be 0.74 µg/mL (≈ 1.32 µM); in the series on HeLa, 2.8 µg/mL (≈ 4.98 µM). Further, the Solubility result in the series “Solubility” (chloroform, dimethyl sulfoxide, methanol, acetone) was “Soluble in chloroform, dimethyl sulfoxide, methanol and acetone”; in “Solubility” (n-hexane, water), “Insoluble in n-hexane and water”.
